Source: patent US20100233737A1, “MARKER SPECIFIC TO AN OXIDATIVE DEGRADATION OF TISSUES CONTAINING TYPE III COLLAGEN, MEANS AND METHODS AND KITS FOR THE DIAGNOSIS, MONITORING OR PROGNOSIS OF PATHOLOGIES TARGETED BY THIS MARKER” (priority 2006, published 2010)
No end group written: not given here.

Tested on: antiserum anti-IIINys (polyclonal, directed against SEQ ID No. 2)
Experiment: Competitive ELISA, specificity of the antiserum anti IIINys vis-à-vis different peptides
Assay type: binding, rabbit
Details: biotinylated IIINys coated on plate, competitor peptide in solution
Protocol: FIG. 4 illustrates the specificity of the polyclonal antibodies prepared vis-à-vis the IIINys, with respect to other synthetic peptides. B/B0 represents the ratio between the quantity of anti-IIINys antibodies fixed to the antigen fixed (“coated”) onto the plate in the presence of competitor compound (B) and in the absence of competitor compound (B0).
Rabbits were injected by intra-peritoneal route with the peptide conjugated to KLH emulsified with Freund's complete adjuvant. This operation was repeated 3 times over three months using the same peptide with Freund's incomplete adjuvant. After each injection a sample of rabbit blood was taken. This blood was left to coagulate for 30 minutes and the whole sample was centrifuged for 10 minutes at 2500 rpm in order to recover the serum. Ten days after the last injection, the rabbits were sacrificed and all the blood was recovered. Each serum sample was titrated by ELISA technique in the presence of the synthetic peptide. The antiserum with the best titre was selected for the finalization of the competitive ELISA (Harlow and Lane, 1988a).
The peptide conjugated to the biotin diluted with the coating buffer is adsorbed on plates avidinated for 2 hours at ambient temperature. After washing, 50 μl of antisera diluted to the optimum titre are added to 50 μl of standard (synthetic peptide diluted in buffer) or to 50 μl of samples to be assayed and are left to incubate overnight at 4° C. After washing, 100 μl of secondary antibodies coupled to the peroxidase directed against the rabbit immunoglobulins are added over one hour at ambient temperature. The wells are washed and 100 μl of substrate (TMB) are added. The reaction is stopped with 100 μl of H2SO4.
The antiserum selected was tested vis-à-vis different peptides according to the ELISA method described previously in order to verify its specificity (FIG. 4). The peptides tested are: the peptide IIINys of sequence SEQ ID No. 2 (the immunogenic peptide), the peptide of sequence SEQ ID No. 3 (the peptide IIINys with only the first tyrosine nitrosylated), the peptide of sequence SEQ ID No. 4 (the peptide IIINys with only the second tyrosine nitrosylated), the peptide of sequence SEQ ID No. 9 (the peptide IIINys with an additional amino acid on the N-terminal side), the peptide of sequence SEQ ID No. 8 (the peptide IIINys with its tyrosines non nytrosylated), 3-nitrotyrosine (FIG. 2), with the nitrosylated BSA of sequence SEQ ID No. 11.

Row | Compound | competition with the peptide IIINys (SEQ ID No. 2) adsorbed on the plate for the antiserum (B/B0, FIG. 4)
1 | N[C@@H](Cc1ccc(O)c([N+](=O)[O-])c1)C(=O)O [3-nitrotyrosine, reference compound] | not capable of entering into competition
2 | PQY*DSY*DVKSG (PQYDSYDVKSG; not fully specified (residues 3, 6); printed as PQY*DSY*DVKSG) [SEQ ID No. 9, the peptide IIINys with an additional amino acid on the N-terminal side, reference compound] | not capable of entering into competition
3 | QY*DSYDVKSG [SEQ ID No. 3, the peptide IIINys with only the first tyrosine nitrosylated] | less affinity than for the peptide IIINys
4 | QYDSY*DVKSG [SEQ ID No. 4, the peptide IIINys with only the second tyrosine nitrosylated] | less affinity than for the peptide IIINys
5 | QYDSYDVKSG [SEQ ID No. 8, the peptide IIINys with its tyrosines non nitrosylated] | not capable of entering into competition
